Measurements as given in the kinase profiling compilation of Christmann-Franck et al. (2016).

Tests used:
Experiment in all cases: KINOMEscan competition binding
Settings in all cases: compound 10.0 µM
ANKK1 (human) = ANKK1 (human) (UniProt Q8NFD2)
CASK (human) = CASK (human) (UniProt O14936)
CDK18 (human) = CDK18 (human) (UniProt Q07002)
CDK4 CCND3 (human) = CDK4 CCND3 (human) (UniProt P11802+P30281)
DAPK2 (human) = DAPK2 (human) (UniProt Q9UIK4)
DCLK2 (human) = DCLK2 (human) (UniProt Q8N568)
DCLK3 (human) = DCLK3 (human) (UniProt Q9C098)
DDR2 (human) = DDR2 (human) (UniProt Q16832)
DSTYK (human) = DSTYK (human) (UniProt Q6XUX3)
EPHA5 (human) = EPHA5 (human) (UniProt P54756)
EPHA6 (human) = EPHA6 (human) (UniProt Q9UF33)
EPHB1 (human) = EPHB1 (human) (UniProt P54762)
EPHB3 (human) = EPHB3 (human) (UniProt P54753)
FES (human) = FES (human) (UniProt P07332)
FGR (human) = FGR (human) (UniProt P09769)
INSRR (human) = INSRR (human) (UniProt P14616)
IRAK1 (human) = IRAK1 (human) (UniProt P51617)
[1] = target: JAK1 JH2 pseudokinase (human) (UniProt P23458)
LIMK2 (human) = LIMK2 (human) (UniProt P53671)
LTK (human) = LTK (human) (UniProt P29376)
MAP2K5 (human) = MAP2K5 (human) (UniProt Q13163)
MAP3K1 (human) = MAP3K1 (human) (UniProt Q13233)
MAP3K3 (human) = MAP3K3 (human) (UniProt Q99759)
MAP3K4 (human) = MAP3K4 (human) (UniProt Q9Y6R4)
MAP3K7 (human) = MAP3K7 (human) (UniProt O43318)
MAP4K2 (human) = MAP4K2 (human) (UniProt Q12851)
MARK2 (human) = MARK2 (human) (UniProt Q7KZI7)
NEK2 (human) = NEK2 (human) (UniProt P51955)
PDGFRB (human) = PDGFRB (human) (UniProt P09619)
PHKG2 (human) = PHKG2 (human) (UniProt P15735)
PKN2 (human) = PKN2 (human) (UniProt Q16513)
PRKCI (human) = PRKCI (human) (UniProt P41743)
PRKCQ (human) = PRKCQ (human) (UniProt Q04759)
RIOK2 (human) = RIOK2 (human) (UniProt Q9BVS4)
ROCK1 (human) = ROCK1 (human) (UniProt Q13464)
RPS6KA4 KD1 (human) = RPS6KA4 KD1 (human) (UniProt O75676)
SIK3 (human) = SIK3 (human) (UniProt Q9Y2K2)
STK17A (human) = STK17A (human) (UniProt Q9UEE5)
WEE1 (human) = WEE1 (human) (UniProt P30291)
ZAP70 (human) = ZAP70 (human) (UniProt P43403)

Chain of DDR2 (human) (Q16832 whole entry, looked up): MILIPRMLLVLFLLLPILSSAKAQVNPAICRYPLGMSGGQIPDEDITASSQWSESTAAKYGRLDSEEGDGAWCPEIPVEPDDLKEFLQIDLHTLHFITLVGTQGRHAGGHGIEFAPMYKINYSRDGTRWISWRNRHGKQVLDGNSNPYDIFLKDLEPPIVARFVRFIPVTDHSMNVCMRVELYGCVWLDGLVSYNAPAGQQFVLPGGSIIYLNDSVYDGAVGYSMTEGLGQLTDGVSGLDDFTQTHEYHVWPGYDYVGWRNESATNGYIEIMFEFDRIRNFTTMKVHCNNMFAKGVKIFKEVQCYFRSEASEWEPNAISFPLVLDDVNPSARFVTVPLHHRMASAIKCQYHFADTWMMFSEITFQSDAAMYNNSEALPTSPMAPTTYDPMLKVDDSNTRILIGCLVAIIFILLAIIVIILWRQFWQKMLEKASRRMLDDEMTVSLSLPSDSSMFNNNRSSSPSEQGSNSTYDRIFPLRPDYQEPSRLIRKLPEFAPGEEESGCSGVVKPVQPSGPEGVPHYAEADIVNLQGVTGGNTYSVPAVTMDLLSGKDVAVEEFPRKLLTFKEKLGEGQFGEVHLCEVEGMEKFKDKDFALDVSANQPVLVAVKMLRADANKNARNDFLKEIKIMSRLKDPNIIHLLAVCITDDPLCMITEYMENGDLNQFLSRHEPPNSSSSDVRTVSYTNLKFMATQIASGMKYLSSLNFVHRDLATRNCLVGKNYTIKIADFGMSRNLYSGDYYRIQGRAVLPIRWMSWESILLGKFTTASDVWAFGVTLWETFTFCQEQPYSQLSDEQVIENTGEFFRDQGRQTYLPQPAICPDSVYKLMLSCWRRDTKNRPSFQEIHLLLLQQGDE
Chain of RPS6KA4 KD1 (human) (O75676 whole entry, looked up): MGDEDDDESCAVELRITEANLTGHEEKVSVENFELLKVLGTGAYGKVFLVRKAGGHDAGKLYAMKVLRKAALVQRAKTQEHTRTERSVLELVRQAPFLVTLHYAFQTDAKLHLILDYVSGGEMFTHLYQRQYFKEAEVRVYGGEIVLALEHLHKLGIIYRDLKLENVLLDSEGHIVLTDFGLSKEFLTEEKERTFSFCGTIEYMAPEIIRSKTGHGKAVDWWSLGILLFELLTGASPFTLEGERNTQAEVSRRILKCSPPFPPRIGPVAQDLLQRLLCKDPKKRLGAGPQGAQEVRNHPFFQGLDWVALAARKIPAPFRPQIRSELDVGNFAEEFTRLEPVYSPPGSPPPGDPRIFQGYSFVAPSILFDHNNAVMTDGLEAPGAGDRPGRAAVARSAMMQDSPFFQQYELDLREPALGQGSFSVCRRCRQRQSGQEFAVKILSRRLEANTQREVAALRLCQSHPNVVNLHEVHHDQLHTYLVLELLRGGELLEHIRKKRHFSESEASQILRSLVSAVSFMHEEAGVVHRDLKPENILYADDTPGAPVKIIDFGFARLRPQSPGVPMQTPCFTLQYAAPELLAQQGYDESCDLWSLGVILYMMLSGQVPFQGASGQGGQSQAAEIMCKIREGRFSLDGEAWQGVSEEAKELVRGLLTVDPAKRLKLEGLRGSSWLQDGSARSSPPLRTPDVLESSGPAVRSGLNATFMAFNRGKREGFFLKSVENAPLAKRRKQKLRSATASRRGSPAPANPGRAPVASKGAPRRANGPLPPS
Chain of SIK3 (human) (Q9Y2K2 whole entry, looked up): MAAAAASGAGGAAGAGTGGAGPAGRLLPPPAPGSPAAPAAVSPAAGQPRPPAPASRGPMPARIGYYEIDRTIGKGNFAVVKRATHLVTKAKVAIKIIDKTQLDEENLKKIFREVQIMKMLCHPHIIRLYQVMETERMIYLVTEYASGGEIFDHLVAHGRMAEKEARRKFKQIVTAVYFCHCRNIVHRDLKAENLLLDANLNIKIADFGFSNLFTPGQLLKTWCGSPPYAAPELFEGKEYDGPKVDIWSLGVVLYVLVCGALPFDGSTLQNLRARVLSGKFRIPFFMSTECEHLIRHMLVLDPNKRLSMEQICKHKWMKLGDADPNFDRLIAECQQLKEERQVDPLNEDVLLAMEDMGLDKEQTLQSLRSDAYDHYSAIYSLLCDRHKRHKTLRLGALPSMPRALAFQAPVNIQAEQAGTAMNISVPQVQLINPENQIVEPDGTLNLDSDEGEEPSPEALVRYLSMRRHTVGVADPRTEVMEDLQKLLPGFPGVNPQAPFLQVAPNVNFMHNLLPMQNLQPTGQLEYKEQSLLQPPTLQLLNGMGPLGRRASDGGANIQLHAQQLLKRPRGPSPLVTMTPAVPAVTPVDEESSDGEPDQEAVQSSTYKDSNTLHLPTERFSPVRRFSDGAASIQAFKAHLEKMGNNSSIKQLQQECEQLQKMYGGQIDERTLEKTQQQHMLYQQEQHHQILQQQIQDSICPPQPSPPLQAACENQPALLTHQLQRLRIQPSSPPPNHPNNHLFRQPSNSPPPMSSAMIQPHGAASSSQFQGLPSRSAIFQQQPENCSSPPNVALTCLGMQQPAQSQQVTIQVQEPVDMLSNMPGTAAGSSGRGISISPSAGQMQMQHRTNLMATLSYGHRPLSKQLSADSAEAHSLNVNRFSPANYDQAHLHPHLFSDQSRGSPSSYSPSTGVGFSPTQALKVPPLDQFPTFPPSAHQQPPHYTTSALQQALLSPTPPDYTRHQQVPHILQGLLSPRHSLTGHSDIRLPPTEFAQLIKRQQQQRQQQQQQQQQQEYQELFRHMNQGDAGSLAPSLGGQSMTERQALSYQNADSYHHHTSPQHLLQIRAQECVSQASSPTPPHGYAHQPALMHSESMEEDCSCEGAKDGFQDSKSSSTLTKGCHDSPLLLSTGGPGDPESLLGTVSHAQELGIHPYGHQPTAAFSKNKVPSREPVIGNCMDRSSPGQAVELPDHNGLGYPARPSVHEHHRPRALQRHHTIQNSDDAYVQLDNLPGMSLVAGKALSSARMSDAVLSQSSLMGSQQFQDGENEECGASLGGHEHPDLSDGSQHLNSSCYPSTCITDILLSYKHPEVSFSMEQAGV
Chain of MAP3K3 (human) (Q99759 whole entry, looked up): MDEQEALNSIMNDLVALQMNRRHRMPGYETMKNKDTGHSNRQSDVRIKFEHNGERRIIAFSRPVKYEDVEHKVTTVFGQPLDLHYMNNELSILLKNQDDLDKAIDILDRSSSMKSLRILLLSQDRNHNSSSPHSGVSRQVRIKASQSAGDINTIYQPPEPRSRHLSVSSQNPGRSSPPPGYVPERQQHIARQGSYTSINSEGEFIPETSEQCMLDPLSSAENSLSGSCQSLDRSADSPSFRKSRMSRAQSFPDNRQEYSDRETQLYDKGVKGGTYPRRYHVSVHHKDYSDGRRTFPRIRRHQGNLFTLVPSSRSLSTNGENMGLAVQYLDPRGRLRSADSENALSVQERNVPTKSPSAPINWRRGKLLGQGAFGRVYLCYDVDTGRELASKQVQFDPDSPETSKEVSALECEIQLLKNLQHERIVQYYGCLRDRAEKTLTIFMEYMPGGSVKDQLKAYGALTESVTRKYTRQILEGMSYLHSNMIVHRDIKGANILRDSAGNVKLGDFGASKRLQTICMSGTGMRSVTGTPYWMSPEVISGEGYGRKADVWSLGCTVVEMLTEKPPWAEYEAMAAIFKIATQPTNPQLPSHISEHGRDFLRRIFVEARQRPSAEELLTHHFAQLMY
Chain of DCLK3 (human) (Q9C098 whole entry, looked up): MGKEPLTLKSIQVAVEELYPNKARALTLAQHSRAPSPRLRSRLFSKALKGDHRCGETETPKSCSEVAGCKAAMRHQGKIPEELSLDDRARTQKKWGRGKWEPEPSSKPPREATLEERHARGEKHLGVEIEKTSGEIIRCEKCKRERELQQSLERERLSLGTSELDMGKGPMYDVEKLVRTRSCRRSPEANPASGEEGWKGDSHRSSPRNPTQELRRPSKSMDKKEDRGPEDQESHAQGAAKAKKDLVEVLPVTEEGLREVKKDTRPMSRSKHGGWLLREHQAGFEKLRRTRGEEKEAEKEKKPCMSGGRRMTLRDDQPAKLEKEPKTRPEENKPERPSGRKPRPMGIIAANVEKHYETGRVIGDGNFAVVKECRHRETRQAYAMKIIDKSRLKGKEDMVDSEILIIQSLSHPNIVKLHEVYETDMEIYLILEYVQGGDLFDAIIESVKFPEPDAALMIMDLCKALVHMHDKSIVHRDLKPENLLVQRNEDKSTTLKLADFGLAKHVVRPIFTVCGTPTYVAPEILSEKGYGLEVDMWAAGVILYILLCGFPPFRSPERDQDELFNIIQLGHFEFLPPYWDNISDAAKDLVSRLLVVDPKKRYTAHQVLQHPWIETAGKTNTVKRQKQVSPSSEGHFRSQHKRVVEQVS
Chain of CDK18 (human) (Q07002 whole entry, looked up): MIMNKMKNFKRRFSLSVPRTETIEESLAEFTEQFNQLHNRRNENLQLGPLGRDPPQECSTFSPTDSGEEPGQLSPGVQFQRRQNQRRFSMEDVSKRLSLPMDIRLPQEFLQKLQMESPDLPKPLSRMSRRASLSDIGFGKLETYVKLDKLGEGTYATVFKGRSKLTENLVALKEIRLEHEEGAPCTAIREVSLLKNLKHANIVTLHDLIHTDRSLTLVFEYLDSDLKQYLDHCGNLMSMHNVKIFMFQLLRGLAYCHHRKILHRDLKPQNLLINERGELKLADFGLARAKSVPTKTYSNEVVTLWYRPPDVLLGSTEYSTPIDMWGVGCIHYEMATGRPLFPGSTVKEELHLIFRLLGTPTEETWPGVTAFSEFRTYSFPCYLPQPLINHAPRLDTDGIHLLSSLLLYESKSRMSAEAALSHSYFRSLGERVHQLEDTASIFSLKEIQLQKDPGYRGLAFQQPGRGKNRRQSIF
Chain of DAPK2 (human) (Q9UIK4 whole entry, looked up): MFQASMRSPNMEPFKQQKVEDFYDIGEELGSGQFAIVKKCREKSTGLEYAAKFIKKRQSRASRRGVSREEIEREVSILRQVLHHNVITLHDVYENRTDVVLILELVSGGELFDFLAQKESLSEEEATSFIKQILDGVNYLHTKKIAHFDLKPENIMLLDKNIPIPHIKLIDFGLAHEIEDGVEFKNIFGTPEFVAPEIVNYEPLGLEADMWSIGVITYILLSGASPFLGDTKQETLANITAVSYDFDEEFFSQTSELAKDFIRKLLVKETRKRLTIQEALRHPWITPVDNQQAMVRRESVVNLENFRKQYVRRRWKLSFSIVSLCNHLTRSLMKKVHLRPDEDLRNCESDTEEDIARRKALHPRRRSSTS

Compound `CN(C)C/C=C/C(=O)Nc1ccc(C(=O)Nc2cccc(Nc3nccc(-c4cccnc4)n3)c2)cc1` has a kinase still bound, per cent of control (ANKK1 (human)) of 8.1%, a kinase still bound, per cent of control (CASK (human)) of 98% and a kinase still bound, per cent of control (CDK18 (human)) of 95%. It also gave a kinase still bound, per cent of control (CDK4 CCND3 (human)) of 100%, a kinase still bound, per cent of control (DAPK2 (human)) of 81% and a kinase still bound, per cent of control (DCLK2 (human)) of 100%. For the same compound, the kinase still bound, per cent of control (DCLK3 (human)) was 100%, the kinase still bound, per cent of control (DDR2 (human)) was 64% and the kinase still bound, per cent of control (DSTYK (human)) was 100%. The kinase still bound, per cent of control (EPHA5 (human)) was 97%, the kinase still bound, per cent of control (EPHA6 (human)) was 90% and the kinase still bound, per cent of control (EPHB1 (human)) was 100%. For the same compound, the kinase still bound, per cent of control (EPHB3 (human)) was 75%, the kinase still bound, per cent of control (FES (human)) was 99% and the kinase still bound, per cent of control (FGR (human)) was 86%. The kinase still bound, per cent of control (INSRR (human)) was 100%, the kinase still bound, per cent of control (IRAK1 (human)) was 0.9% and the kinase still bound, per cent of control [1] was 0.6%. It also gave a kinase still bound, per cent of control (LIMK2 (human)) of 92%, a kinase still bound, per cent of control (LTK (human)) of 100% and a kinase still bound, per cent of control (MAP2K5 (human)) of 41%. For the same compound, the kinase still bound, per cent of control (MAP3K1 (human)) was 100%, the kinase still bound, per cent of control (MAP3K3 (human)) was 93% and the kinase still bound, per cent of control (MAP3K4 (human)) was 71%. The kinase still bound, per cent of control (MAP3K7 (human)) was 9.2%, the kinase still bound, per cent of control (MAP4K2 (human)) was 9% and the kinase still bound, per cent of control (MARK2 (human)) was 73%. The kinase still bound, per cent of control (NEK2 (human)) was 1.1%, the kinase still bound, per cent of control (PDGFRB (human)) was 3.6% and the kinase still bound, per cent of control (PHKG2 (human)) was 56%. The kinase still bound, per cent of control (PKN2 (human)) was 79%, the kinase still bound, per cent of control (PRKCI (human)) was 100% and the kinase still bound, per cent of control (PRKCQ (human)) was 68%. For the same compound, the kinase still bound, per cent of control (RIOK2 (human)) was 9.6%, the kinase still bound, per cent of control (ROCK1 (human)) was 48% and the kinase still bound, per cent of control (RPS6KA4 KD1 (human)) was 100%. It also gave a kinase still bound, per cent of control (SIK3 (human)) of 64%, a kinase still bound, per cent of control (STK17A (human)) of 6.4% and a kinase still bound, per cent of control (WEE1 (human)) of 100%. For the same compound, the kinase still bound, per cent of control (ZAP70 (human)) was 85%.
With `C=CC(=O)Nc1cc(-n2c(=O)ccc3cnc4ccc(-c5cn[nH]c5)cc4c32)ccc1C` the kinase still bound, per cent of control (ANKK1 (human)) was 82%, the kinase still bound, per cent of control (CASK (human)) was 58% and the kinase still bound, per cent of control (CDK18 (human)) was 88%. It also gave a kinase still bound, per cent of control (CDK4 CCND3 (human)) of 87%, a kinase still bound, per cent of control (DAPK2 (human)) of 57% and a kinase still bound, per cent of control (DCLK2 (human)) of 100%. The kinase still bound, per cent of control (DCLK3 (human)) was 100%, the kinase still bound, per cent of control (DDR2 (human)) was 75% and the kinase still bound, per cent of control (DSTYK (human)) was 70%. For the same compound, the kinase still bound, per cent of control (EPHA5 (human)) was 100%, the kinase still bound, per cent of control (EPHA6 (human)) was 94% and the kinase still bound, per cent of control (EPHB1 (human)) was 94%. The kinase still bound, per cent of control (EPHB3 (human)) was 100%, the kinase still bound, per cent of control (FES (human)) was 100% and the kinase still bound, per cent of control (FGR (human)) was 57%. It also gave a kinase still bound, per cent of control (INSRR (human)) of 100%, a kinase still bound, per cent of control (IRAK1 (human)) of 41% and a kinase still bound, per cent of control [1] of 34%. It also gave a kinase still bound, per cent of control (LIMK2 (human)) of 100%, a kinase still bound, per cent of control (LTK (human)) of 100% and a kinase still bound, per cent of control (MAP2K5 (human)) of 0.3%. For the same compound, the kinase still bound, per cent of control (MAP3K1 (human)) was 97%, the kinase still bound, per cent of control (MAP3K3 (human)) was 91% and the kinase still bound, per cent of control (MAP3K4 (human)) was 100%. The kinase still bound, per cent of control (MAP3K7 (human)) was 0.35%, the kinase still bound, per cent of control (MAP4K2 (human)) was 9.4% and the kinase still bound, per cent of control (MARK2 (human)) was 83%. It also gave a kinase still bound, per cent of control (NEK2 (human)) of 100%, a kinase still bound, per cent of control (PDGFRB (human)) of 5.6% and a kinase still bound, per cent of control (PHKG2 (human)) of 79%. It also gave a kinase still bound, per cent of control (PKN2 (human)) of 82%, a kinase still bound, per cent of control (PRKCI (human)) of 99% and a kinase still bound, per cent of control (PRKCQ (human)) of 100%. The kinase still bound, per cent of control (RIOK2 (human)) was 12%, the kinase still bound, per cent of control (ROCK1 (human)) was 94% and the kinase still bound, per cent of control (RPS6KA4 KD1 (human)) was 100%. It also gave a kinase still bound, per cent of control (SIK3 (human)) of 78%, a kinase still bound, per cent of control (STK17A (human)) of 100% and a kinase still bound, per cent of control (WEE1 (human)) of 100%. The kinase still bound, per cent of control (ZAP70 (human)) was 48%.
Work on `COc1cc(C(=O)N2CCC(N3CCN(C)CC3)CC2)ccc1Nc1ncc2c(n1)N(C)c1ccccc1C(=O)N2C` yielded a kinase still bound, per cent of control (ANKK1 (human)) of 100%, a kinase still bound, per cent of control (CASK (human)) of 85% and a kinase still bound, per cent of control (CDK18 (human)) of 100%. For the same compound, the kinase still bound, per cent of control (CDK4 CCND3 (human)) was 100%, the kinase still bound, per cent of control (DAPK2 (human)) was 67% and the kinase still bound, per cent of control (DCLK2 (human)) was 0.45%. It also gave a kinase still bound, per cent of control (DCLK3 (human)) of 90%, a kinase still bound, per cent of control (DDR2 (human)) of 100% and a kinase still bound, per cent of control (DSTYK (human)) of 16%. It also gave a kinase still bound, per cent of control (EPHA5 (human)) of 95%, a kinase still bound, per cent of control (EPHA6 (human)) of 89% and a kinase still bound, per cent of control (EPHB1 (human)) of 98%. The kinase still bound, per cent of control (EPHB3 (human)) was 100%, the kinase still bound, per cent of control (FES (human)) was 84% and the kinase still bound, per cent of control (FGR (human)) was 84%. For the same compound, the kinase still bound, per cent of control (INSRR (human)) was 97%, the kinase still bound, per cent of control (IRAK1 (human)) was 100% and the kinase still bound, per cent of control [1] was 92%. The kinase still bound, per cent of control (LIMK2 (human)) was 100%, the kinase still bound, per cent of control (LTK (human)) was 32% and the kinase still bound, per cent of control (MAP2K5 (human)) was 85%. The kinase still bound, per cent of control (MAP3K1 (human)) was 95%, the kinase still bound, per cent of control (MAP3K3 (human)) was 97% and the kinase still bound, per cent of control (MAP3K4 (human)) was 100%. For the same compound, the kinase still bound, per cent of control (MAP3K7 (human)) was 98%, the kinase still bound, per cent of control (MAP4K2 (human)) was 100% and the kinase still bound, per cent of control (MARK2 (human)) was 100%. It also gave a kinase still bound, per cent of control (NEK2 (human)) of 100%, a kinase still bound, per cent of control (PDGFRB (human)) of 100% and a kinase still bound, per cent of control (PHKG2 (human)) of 33%. For the same compound, the kinase still bound, per cent of control (PKN2 (human)) was 95%, the kinase still bound, per cent of control (PRKCI (human)) was 100% and the kinase still bound, per cent of control (PRKCQ (human)) was 100%. It also gave a kinase still bound, per cent of control (RIOK2 (human)) of 100%, a kinase still bound, per cent of control (ROCK1 (human)) of 100% and a kinase still bound, per cent of control (RPS6KA4 KD1 (human)) of 100%. The kinase still bound, per cent of control (SIK3 (human)) was 100%, the kinase still bound, per cent of control (STK17A (human)) was 100% and the kinase still bound, per cent of control (WEE1 (human)) was 100%. For the same compound, the kinase still bound, per cent of control (ZAP70 (human)) was 79%.
